Converted amounts (≈) assume the structure as drawn.
Assays:
[1] = tested on: P388; test: Cytotoxicity against mouse P388 cells; assay type: functional, cell-based
[2] = tested on: HeLa; test: Cytotoxicity against human HeLa cells; assay type: functional, cell-based

Compound	IC50 [1] [µg/mL]	IC50 [2] [µg/mL]
C#C/C=C\CCCCC#CC#CC#CCCC/C=C\C#CCO [DEHYDROISOPHONOCHALYNOL]	2.2 (≈ 7.27 µM)	5.1 (≈ 16.9 µM)
C#C/C=C\CCCCCCC#CC#CCCC/C=C\C#CCO [CALLYSPONGENOL B]	10 (≈ 32.6 µM)	10 (≈ 32.6 µM)
C#C/C=C\CCCCC#CCCCCC#CCCCC#CCO	2.2 (≈ 7.13 µM)	4.5 (≈ 14.6 µM)
C#C/C=C\CCCC/C=C\C#CC#CCCC/C=C\C#CCO [CALLYSPONGENOL C]	2.2 (≈ 7.23 µM)	3.9 (≈ 12.8 µM)
COc1cccc2c1C(=O)c1c(O)c3c(c(O)c1C2=O)C[C@@](O)(C(=O)CO)C[C@@H]3O[C@H]1C[C@H](N)[C@H](O)[C@H](C)O1 [DOXORUBICIN]	0.04 (≈ 0.0736 µM)	0.066 (≈ 0.121 µM)
